Tested on: K98450-129-R-PDC multicell spheroids, viability
Test: Anticancer human tumor K98450-129-R-PDC patient-derived colon adenocarcinoma cell line growth inhibition [PI3K]
Conditions: for viability, T/C: stronger effect = lower value
How it was run: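 Viability of mixed-cell spheroids was determined after exposure to pairwise combinations, one partner being inavolisib, alpelisib, duvelisib or copanlisib. Highest tested concentration matched clinical Cmax where known and 10 microM where not, descending in half-log steps.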

[1] = curve of first compound, second compound 0.00316 µM
[2] = curve of first compound, second compound 0.01 µM
[3] = curve of first compound, second compound 0.0316 µM
[4] = curve of first compound, second compound 0.1 µM
[5] = curve of first compound, second compound 0.316 µM
[6] = curve of first compound, second compound 1 µM
[7] = second compound 0.00316 µM, first compound 0.0316 µM
[8] = second compound 0.00316 µM, first compound 0.1 µM
[9] = second compound 0.01 µM, first compound 0.0316 µM
[10] = second compound 0.01 µM, first compound 0.1 µM
[11] = second compound 0.0316 µM, first compound 0.0316 µM
[12] = second compound 0.0316 µM, first compound 0.1 µM
[13] = second compound 0.1 µM, first compound 0.0316 µM
[14] = second compound 0.1 µM, first compound 0.1 µM
[15] = second compound 0.316 µM, first compound 0.0316 µM
[16] = second compound 0.316 µM, first compound 0.1 µM
[17] = second compound 1 µM, first compound 0.0316 µM
[18] = second compound 1 µM, first compound 0.1 µM
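Further: spheroids exposed to agents for seven days before read-out.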

With `CC(Nc1ncnc2nc[nH]c12)c1cc2cccc(Cl)c2c(=O)n1-c1ccccc1` (stereo unspecified) the viability, T/C (compound 0.0316 µM) was 105% [middle of 8 runs], the viability, T/C (compound 0.1 µM) was 98.9% [middle of 8 runs] and the viability, T/C (compound 0.316 µM) was 103% [middle of 8 runs]. The viability, T/C (compound 1 µM) was 99.9% [middle of 8 runs], the viability, T/C (compound 3.16 µM) was 105% [middle of 8 runs] and the viability, T/C (compound 10 µM) was 97.6% [middle of 8 runs]. The IC50 (compound alone, run of 04/25/2023) was > 10 µM.

For `CC(=O)c1c(C)c2cnc(Nc3ccc(N4CCNCC4)cn3)nc2n(C2CCCC2)c1=O` + CC(Nc1ccc2c(c1)OCCn1cc(N3C(=O)OCC3C(F)F)nc1-2)C(N)=O, the IC50 [1] was > 0.1 µM, the IC50 [2] was > 0.1 µM and the IC50 [3] was > 0.1 µM. For the same compound, the IC50 [4] was > 0.1 µM, the IC50 [5] was > 0.1 µM and the IC50 [6] was > 0.1 µM. It also gave a viability, T/C (second compound 0.00316 µM, first compound 0.000316 µM) of 113%, a viability, T/C (second compound 0.00316 µM, first compound 0.001 µM) of 103% and a viability, T/C (second compound 0.00316 µM, first compound 0.00316 µM) of 105%. For the same compound, the viability, T/C (second compound 0.00316 µM, first compound 0.01 µM) was 97.2%, the viability, T/C [7] was 99.9% and the viability, T/C [8] was 95.7%. The viability, T/C (second compound 0.01 µM, first compound 0.000316 µM) was 109%, the viability, T/C (second compound 0.01 µM, first compound 0.001 µM) was 101% and the viability, T/C (second compound 0.01 µM, first compound 0.00316 µM) was 104%. For the same compound, the viability, T/C (second compound 0.01 µM, first compound 0.01 µM) was 91.2%, the viability, T/C [9] was 103% and the viability, T/C [10] was 92.8%. It also gave a viability, T/C (second compound 0.0316 µM, first compound 0.000316 µM) of 111%, a viability, T/C (second compound 0.0316 µM, first compound 0.001 µM) of 95.7% and a viability, T/C (second compound 0.0316 µM, first compound 0.00316 µM) of 103%. It also gave a viability, T/C (second compound 0.0316 µM, first compound 0.01 µM) of 94.9%, a viability, T/C [11] of 100% and a viability, T/C [12] of 95.6%. It also gave a viability, T/C (second compound 0.1 µM, first compound 0.000316 µM) of 97.7%, a viability, T/C (second compound 0.1 µM, first compound 0.001 µM) of 100% and a viability, T/C (second compound 0.1 µM, first compound 0.00316 µM) of 92.7%. The viability, T/C (second compound 0.1 µM, first compound 0.01 µM) was 94.8%, the viability, T/C [13] was 99.1% and the viability, T/C [14] was 103%. It also gave a viability, T/C (second compound 0.316 µM, first compound 0.000316 µM) of 94.3%, a viability, T/C (second compound 0.316 µM, first compound 0.001 µM) of 96.5% and a viability, T/C (second compound 0.316 µM, first compound 0.00316 µM) of 100%. For the same compound, the viability, T/C (second compound 0.316 µM, first compound 0.01 µM) was 93.3%, the viability, T/C [15] was 103% and the viability, T/C [16] was 91.4%. It also gave a viability, T/C (second compound 1 µM, first compound 0.000316 µM) of 89%, a viability, T/C (second compound 1 µM, first compound 0.001 µM) of 95.8% and a viability, T/C (second compound 1 µM, first compound 0.00316 µM) of 94.1%. It also gave a viability, T/C (second compound 1 µM, first compound 0.01 µM) of 95.2%, a viability, T/C [17] of 96.1% and a viability, T/C [18] of 82%.

`C[C@@H](NC(=O)c1ncnc(N)c1Cl)c1ncc(C(=O)Nc2cc(C(F)(F)F)c(Cl)cn2)s1` + COc1c(OCCCN2CCOCC2)ccc2c3n(c(=NC(=O)c4cnc(N)nc4)nc12)CCN3 was tested, and the IC50 [1] was > 10 µM, the IC50 [2] was > 10 µM and the IC50 [3] was > 10 µM. The IC50 [4] was > 10 µM, the IC50 [5] was > 10 µM and the IC50 [6] was 4.39 µM. For the same compound, the viability, T/C [7] was 119%, the viability, T/C [8] was 119% and the viability, T/C (second compound 0.00316 µM, first compound 0.316 µM) was 108%. For the same compound, the viability, T/C (second compound 0.00316 µM, first compound 1 µM) was 117%, the viability, T/C (second compound 0.00316 µM, first compound 3.16 µM) was 133% and the viability, T/C (second compound 0.00316 µM, first compound 10 µM) was 95%. The viability, T/C [9] was 108%, the viability, T/C [10] was 93.7% and the viability, T/C (second compound 0.01 µM, first compound 0.316 µM) was 115%. For the same compound, the viability, T/C (second compound 0.01 µM, first compound 1 µM) was 108%, the viability, T/C (second compound 0.01 µM, first compound 3.16 µM) was 105% and the viability, T/C (second compound 0.01 µM, first compound 10 µM) was 95.9%. It also gave a viability, T/C [11] of 83.5%, a viability, T/C [12] of 96% and a viability, T/C (second compound 0.0316 µM, first compound 0.316 µM) of 97.4%. It also gave a viability, T/C (second compound 0.0316 µM, first compound 1 µM) of 93%, a viability, T/C (second compound 0.0316 µM, first compound 3.16 µM) of 109% and a viability, T/C (second compound 0.0316 µM, first compound 10 µM) of 78.7%. For the same compound, the viability, T/C [13] was 76%, the viability, T/C [14] was 87% and the viability, T/C (second compound 0.1 µM, first compound 0.316 µM) was 98.4%. For the same compound, the viability, T/C (second compound 0.1 µM, first compound 1 µM) was 90.3%, the viability, T/C (second compound 0.1 µM, first compound 3.16 µM) was 101% and the viability, T/C (second compound 0.1 µM, first compound 10 µM) was 70.9%. The viability, T/C [15] was 54.8%, the viability, T/C [16] was 71.6% and the viability, T/C (second compound 0.316 µM, first compound 0.316 µM) was 65.2%. For the same compound, the viability, T/C (second compound 0.316 µM, first compound 1 µM) was 69.2%, the viability, T/C (second compound 0.316 µM, first compound 3.16 µM) was 68.2% and the viability, T/C (second compound 0.316 µM, first compound 10 µM) was 51.1%. For the same compound, the viability, T/C [17] was 58.3%, the viability, T/C [18] was 55% and the viability, T/C (second compound 1 µM, first compound 0.316 µM) was 51.1%. The viability, T/C (second compound 1 µM, first compound 1 µM) was 62.1%, the viability, T/C (second compound 1 µM, first compound 3.16 µM) was 59.6% and the viability, T/C (second compound 1 µM, first compound 10 µM) was 37.1%.
